In patent US20210205264A1, “USE OF DELTA-TOCOTRIENOL FOR TREATING CANCER” (H. LEE MOFFITT CANCER CENTER & RESEARCH INSTITUTE INC., priority 2018, published 2021):

Tests used:
HT-29 = assay: Apoptosis induction in HT-29; format: cell-based, human
HCT-116 = assay: Apoptosis induction in HCT-116; format: cell-based, human
ApcMin/+ mice = assay: Adenoma (intestinal polyp) formation in ApcMin/+ mice; format: in vivo
Source text: FIGS. 1A and 1B show the number of intestinal polyps (FIG. 1A) and H&E staining of polyps (FIG. 1B) in ApcMin/+ mice treated with vehicle (V), aspirin (Asp), d-T3, and combination of aspirin+d-T3. Black dots in FIG. 1B point out polyps in the intestine. Although substantial preclinical evidence exists regarding the preventive activity of d-T3 and g-T3 in various types of cancers, there is no report of d-T3 prevention of colon cancer despite evidence of activity in colon cell lines and xenograft models. […] Treatment with aspirin alone reduced adenoma formation by 38%, and treatment with d-T3 alone reduced adenoma formation by 44%, while treatment with the combination of aspirin and d-T3 reduced adenoma formation by 58%.

hCAS = molecular target: T1, hCAS (Homo sapiens, UniProt P55060); assay: Competitive affinity-isolation of hCAS in MiaPaCa-2 cell lysate; format: binding; conditions: excess free compound
T1 construct: endogenous in cells; host or cells: MiaPaCa-2 human pancreatic cancer cells
T1 sequence (P55060 1-971): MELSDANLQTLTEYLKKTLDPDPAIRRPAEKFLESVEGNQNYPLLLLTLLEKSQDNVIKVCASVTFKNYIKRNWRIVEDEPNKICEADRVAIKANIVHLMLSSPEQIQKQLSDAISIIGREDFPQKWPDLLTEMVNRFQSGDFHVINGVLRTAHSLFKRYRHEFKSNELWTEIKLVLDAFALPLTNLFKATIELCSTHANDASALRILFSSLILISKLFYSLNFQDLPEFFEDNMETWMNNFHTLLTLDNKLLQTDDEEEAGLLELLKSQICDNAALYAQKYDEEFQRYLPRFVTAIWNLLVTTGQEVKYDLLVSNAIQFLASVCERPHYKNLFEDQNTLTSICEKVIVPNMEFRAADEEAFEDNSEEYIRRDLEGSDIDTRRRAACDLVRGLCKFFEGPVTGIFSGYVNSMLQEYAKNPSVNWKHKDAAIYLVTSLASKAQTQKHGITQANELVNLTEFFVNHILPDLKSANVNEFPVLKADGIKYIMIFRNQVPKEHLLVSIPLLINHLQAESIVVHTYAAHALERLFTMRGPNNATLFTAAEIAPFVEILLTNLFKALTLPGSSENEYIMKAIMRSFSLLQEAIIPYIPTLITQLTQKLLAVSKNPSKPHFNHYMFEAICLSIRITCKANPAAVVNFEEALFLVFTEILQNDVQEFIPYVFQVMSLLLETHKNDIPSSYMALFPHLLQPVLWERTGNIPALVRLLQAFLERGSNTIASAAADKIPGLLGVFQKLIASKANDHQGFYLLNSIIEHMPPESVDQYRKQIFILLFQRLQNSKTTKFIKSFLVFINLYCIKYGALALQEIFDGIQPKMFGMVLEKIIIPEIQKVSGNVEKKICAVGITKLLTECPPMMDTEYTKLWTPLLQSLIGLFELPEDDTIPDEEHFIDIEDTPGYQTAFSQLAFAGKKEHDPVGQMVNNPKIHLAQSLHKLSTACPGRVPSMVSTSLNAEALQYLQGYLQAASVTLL
Method: This experiment used a synthetic biotin-δ-tocotrienol conjugate (shown below to inhibit growth activity of cultured MiaPaca-2 human pancreatic cancer cells) to confirm affinity-isolation of hCAS. To confirm that δ-T3 binds to hCAS in intact cells, biotinylated δ-T3 (B-δ-T3) was prepared by chemically coupling the —OH group of δ-T3 to the —COOH of biotin using a PEG-iodoactamide linker (FIG. 18). […] Affinity-isolation of hCAS was inhibited in the presence of free δ-tocotrienol but not with free δ-tocopherol.

SW-620 = assay: Apoptosis induction in SW-620; format: cell-based, human
[1] = parameters: species or system humans; conditions: in vivo
Method: Two phase I dose-escalation studies were performed determining safety, pharmacokinetics, and pharmacodynamics after twice daily oral administration of d-T3 for 14 consecutive days before surgery in patients with resectable pancreatic exocrine neoplasia and in healthy individuals. […] Based on experience from clinical trials and in animal studies, a dose of 400 mg twice daily was selected for the trial. It should be noted that d-T3 concentration is several times higher in fatty tissues such as the pancreas and colon.

β-catenin = β-catenin immunofluorescence and Western blot in CCSCs; format: cell-based, human
Source text: FIGS. 9A, 9B, 9C, and 9D show quantification of β-catenin in the nucleus and cytoplasm of CCSCs with confocal microscopy (FIGS. 9A & 9B) after treatment with vehicle, aspirin, d-T3, and aspirin+d-T3.
As noted above, stability of the β-catenin complex by inactivation of APC leads to stabilization and nuclear translocation of β-catenin and to transcriptional activation of β-catenin target genes such as c-Myc and cyclin D1. […] Furthermore, d-T3 inhibition of CCSCs is associated with the downregulation of β-catenin, c-Myc, cyclin D1, and survivin as measured by Western blot in CCSCs (FIG. 9D).

[2] = test system: colon cancer stem cells (CCSC); assay: d-T3 IC50 in colon cancer stem cells; format: cell-based, human; conditions: 5 days treatment, daily fresh media change
human CCSCs = assay: Orthotopic (cecum) model of luciferase expressing human CCSCs in NOD-SCID mice; format: in vivo
Method: FIGS. 8A, 8B, 8C, and 8D show growth of cecal tumor volume (FIGS. 8A & 8B) and liver metastasis score (FIGS. 8C & 8D) in orthotopic model of CCSCs after treatment with vehicle, aspirin, d-T3, and aspirin+d-T3.
In vivo model of human CCSC were developed by implanting the stably transfected luciferase expressing CCSCs in the cecum of NOD-SCID mice. In this model, tumor growth, metastasis, and survival are monitored twice weekly by IP injection of luciferin (150 mg/kg body weight) and imaged using the IVIS 200 Bioluminescence imaging system. […] These findings strongly indicate that d-T3 targets CCSCs and enhances the ability of aspirin to target these cells.

## CC(C)=CCC/C(C)=C/CC/C(C)=C/CC[C@]1(C)CCc2cc(O)cc(C)c2O1 [d-T3, δ-tocotrienol]
HT-29
  apoptosis: significantly induced apoptosis
HCT-116
  apoptosis: significantly induced apoptosis
ApcMin/+ mice
  reduced adenoma formation: 44%
hCAS
  affinity-isolation of hCAS / hCAS binding to biotin-T3 in presence of free competitor: reduces hCAS binding
hCAS; listed as δ-tocotrienol
  affinity-isolation of hCAS / hCAS binding to biotin-T3 in presence of free competitor: inhibited
SW-620
  apoptosis: significantly induced apoptosis
[1]; human, po
  AUC: ≤ 175 µM·h
  Cmax: ≤ 17 µM
  half-life: approximately 4 hours
[1]
  dose-limiting toxicities: no dose-limiting toxicities
β-catenin
  β-catenin, c-Myc, cyclin D1, and survivin by Western blot: downregulation
β-catenin; immunofluorescence staining
  amount of β-catenin translocated to the nucleus: significantly decreased
[2]
  IC50: 5 µM
Human CCSCs
  growth of human CRC stem cells (cecal tumor): inhibited
Human CCSCs; liver metastasis
  metastases of human CRC stem cells: inhibited
